In patent US20250092013A1, “PRODRUGS OF AXITINIB” (OCULAR THERAPEUTIX, INC., priority 2021, published 2025):
≈ marks a conversion by molar mass, not a printed value.

Key:
[1] = cited from earlier work
[2] = Solubility testing in phosphate buffer saline pH 7.4 (HPLC with calibration curve); assay type: physicochemical
Experimental: Solubility testing was performed with the following test items and conditions: • Test items: axitinib (99.99% purity by HPLC); axitinib-N-succinoyloxymethyl prodrug (94.3% purity by HPLC); • Test media: phosphate buffer saline pH 7.4 • Incubation condition: 24 hour at 22° C. with continuous shaking • Test concentration: 1 mg/mL • Data analysis: Solubility of test item was determined by HPLC analysis with calibration curve

| solubility at 24 h ([2]; 22 °C, pH 7.4, aqueous buffer, thermodynamic from solid) | Solubility ([2]; phosphate buffer saline pH 7.4, 24 hour at 22° C. with continuous shaking, test concentration 1 mg/mL) | solubility of the prodrug enhanced (fold vs axitinib) ([2]; relative to literature reported solubility of axitinib (about 0.2 mcg/mL)) | SMILES | literature reported solubility [1] |
| --- | --- | --- | --- | --- |
| < 0.78 µg/mL |  |  | CNC(=O)c1ccccc1Sc1ccc2c(/C=C/c3ccccn3)n[nH]c2c1 [Axitinib, axitinib] | about 0.2 mcg/mL |
|  | 217.4 µg/mL (≈ 421 µM) | ~1100 × | CNC(=O)c1ccccc1Sc1ccc2c(/C=C/c3ccccn3)nn(COC(=O)CCC(=O)O)c2c1 [N-Succinoyloxymethyl Prodrug, axitinib-N-succinoyloxymethyl] |  |
